{
  "source": "patent US20030143586A1",
  "about": "“Genetic hypermutability of plants for gene discovery and diagnosis” (priority 2001, published 2003)",
  "key": {"[1]": {"system": "Conyza canadensis field populations", "details": "cited from earlier work"}, "[2]": {"system": "horseweed (Conyza canadensis)", "experiment": "Glyphosate applied to horseweed plants to confirm sensitivity to the herbicide", "format": "in vivo", "protocol": "Isolation and modification of the genomic DNA: Total horseweed (Conyza Canadensis) genomic DNA was isolated from 100 mg of leaves using Plant DNAZol as described by the manufacturer (Invitrogen). The typical yield was 10-20 μg DNA per preparation. Two different biotypes of horseweed were used as source of the DNA and were designated HR and HS.\nAnalysis of the DNA Marker: Horseweeds were either germinated from seeds or seedlings were transferred from the field into the greenhouse. DNAs from the genomes of HR and HS horseweeds were isolated. At the same time, glyphosate was applied at 2 lb active ingredient/acre rate to confirm the plants' sensitivity to the herbicide."}},
  "data": [
    {"smiles": "O=C(O)CNCP(=O)(O)O", "note": "[Glyphosate, glyphosate]", "values": [
      {"measurement": "field populations naturally resistant to glyphosate", "setting": "[1]", "result": "approximately 15%"},
      {"measurement": "response to glyphosate treatment", "setting": "[2]; horseweed biotype designated HR (DNA source, Example 4)", "result": "tolerance"},
      {"measurement": "response to glyphosate treatment", "setting": "[2]; horseweed biotype designated HS (DNA source, Example 4)", "result": "sensitive"}
    ]}
  ]
}
